In this assay the target is T1, roGFP2 (Aequorea victoria, UniProt P42212, C48S/S65T/Q80R/S147C/Q204C).
T1 construct: gene GFP; redox-sensitive GFP mutant, His tag (pRSET-roGFP2), expressed in E. coli DH5alpha, Ni-NTA purified, DTT-reduced then desalted
The experiment in a line: […] nm excitation fluorescence ratio of isolated roGFP2, plate reader. The note with it: 1 ppm menadione; DTT-reduced roGFP2 1.39 ug/mL; 75 mM HEPES pH 7.0, 140 mM NaCl; monitored 5 min; oxidation of roGFP2, not reversible binding.

For `CC1=CC(=O)c2ccccc2C1=O` [menadione, 2-methyl-1,4-naphtoquinone], the “% change of 400/490 nm ratio vs t = 0 at 1 ppm” value lay in the range of 9.1 to 29.4%.

The values above are taken from publication PMC3231123, “A Bacterial Biosensor for Oxidative Stress Using the Constitutively Expressed Redox-Sensitive Protein roGFP2” (Sensors (Basel, Switzerland), 2010).
